ChEMBL document CHEMBL4038270, “Synthesis of heterocyclic ring-fused tricyclic diterpene analogs as novel inhibitors of RANKL-induced osteoclastogenesis and bone resorption” (Eur J Med Chem, 2017)

Assays:
[1] = Inhibition of RANKL-induced C57BL/6 mouse bone marrow monocytes differentiation into osteoclasts at 10 uM after 6 days in presence of M-CSF by tartrate-resistant acid phosphatase staining based assay relative to control; assay type: functional; details: C57BL/6, Bone marrow monocyte, 144 h
[2] = Inhibition of RANKL-induced C57BL/6 mouse bone marrow monocytes differentiation into osteoclasts at 0.5 uM after 6 days in presence of M-CSF by tartrate-resistant acid phosphatase staining based assay relative to control; assay type: functional; details: C57BL/6, Bone marrow monocyte, 144 h
[3] = Inhibition of RANKL-induced C57BL/6 mouse bone marrow monocytes differentiation into osteoclasts at 2 uM after 6 days in presence of M-CSF by tartrate-resistant acid phosphatase staining based assay relative to control; assay type: functional; details: C57BL/6, Bone marrow monocyte, 144 h
[4] = Inhibition of RANKL-induced C57BL/6 mouse bone marrow macrophage differentiation into osteoclasts in presence of M-CSF by tartrate-resistant acid phosphatase staining based assay; assay type: functional, cell-based; details: C57BL/6, BMDM
[5] = Inhibition of RANKL-induced C57BL/6 mouse bone marrow monocytes differentiation into osteoclasts at 0.1 uM after 6 days in presence of M-CSF by tartrate-resistant acid phosphatase staining based assay relative to control; assay type: functional; details: C57BL/6, Bone marrow monocyte, 144 h
[6] = Inhibition of RANKL-induced C57BL/6 mouse bone marrow monocytes differentiation into osteoclasts after 6 days in presence of M-CSF by tartrate-resistant acid phosphatase staining based assay; assay type: functional, cell-based; details: C57BL/6, Bone marrow monocyte, 144 h
[7] = Potency index, ratio of maslinic acid IC50 to compound IC50 for RANKL-induced C57BL/6 mouse bone marrow monocytes differentiation into osteoclasts; assay type: functional, Bone marrow monocyte

Row | IC50 [4] [µM] | IC50 [6] [µM] | Structure (SMILES) | inhibition at 10 µM [1] [%] | inhibition at 0.5 µM [2] [%] | inhibition at 2 µM [3] [%] | inhibition at 0.1 µM [5] [%] | Ratio IC50 [7]
1 |  |  | COc1ccc2c(c1)[C@@]1(C)Cc3c(n[nH]c3C(=O)O)C(C)(C)[C@@H]1CC2 | 56.1 | 43.9 | 57.2 |  | 
2 |  |  | CCOC(=O)c1noc2c1C[C@]1(C)c3cc(OC)ccc3CC[C@H]1C2(C)C | 100 | 49.5 | 88.6 |  | 
3 | 15 |  | CC1(C)[C@H](O)C(=O)C[C@]2(C)[C@@H]1CC[C@]13CC4C[C@](O)(C1)[C@@H]4C[C@H]32 |  |  |  |  | 
4 |  |  | COc1cc2c(cc1C(=O)O)CC[C@H]1C(C)(C)c3oc(C)nc3C[C@]21C |  | 45.2 | 67.8 | 22.6 | 
5 |  |  | COc1ccc2c(c1)[C@@]1(C)Cc3c(CO)noc3C(C)(C)[C@@H]1CC2 | 91.4 | 43.4 | 51.7 |  | 
6 |  |  | CCCCNC(=O)c1cc2c(cc1OC)[C@@]1(C)Cc3nc(C)oc3C(C)(C)[C@@H]1CC2 |  | 37.8 | 88.6 | 34.5 | 
7 |  |  | COc1cc2c(cc1C(=O)N(C)C)CC[C@H]1C(C)(C)c3oc(C)nc3C[C@]21C |  | 70.1 | 89.2 | 53.1 | 
8 |  | 0.63 | CC1(C)CC[C@]2(C(=O)O)CC[C@]3(C)C(=CC[C@@H]4[C@@]5(C)C[C@@H](O)[C@H](O)C(C)(C)[C@@H]5CC[C@]43C)[C@@H]2C1 [MASLINIC ACID] | 76.3 | 48.6 | 59.7 |  | 
9 |  |  | COC(=O)c1noc2c1C[C@]1(C)c3cc(OC)ccc3CC[C@H]1C2(C)C | 100 | 34.8 | 43.7 |  | 
10 |  |  | CCC(=O)c1cc2c(cc1OC)[C@@]1(C)Cc3nc(C)oc3C(C)(C)[C@@H]1CC2 |  | 64.1 | 91.3 | 32.5 | 
11 |  |  | CCCNC(=O)c1cc2c(cc1OC)[C@@]1(C)Cc3nc(C)oc3C(C)(C)[C@@H]1CC2 |  | 62.8 | 100 | 38.1 | 
12 |  | 7.5 | COc1ccc2c(c1)[C@@]1(C)Cc3cnoc3C(C)(C)[C@@H]1CC2 | 59.1 | 1.5 | 15.9 |  | 
13 |  |  | CCNC(=O)c1noc2c1C[C@]1(C)c3cc(OC)ccc3CC[C@H]1C2(C)C | 84.3 | 33.6 | 42.4 |  | 
14 |  |  | COc1ccc2c(c1)[C@@]1(C)Cc3nc(N)sc3C(C)(C)[C@@H]1CC2 | 98.2 | 29.8 | 35.8 |  | 
15 |  |  | CNC(=O)c1noc2c1C[C@]1(C)c3cc(OC)ccc3CC[C@H]1C2(C)C | 100 | 28.6 | 52.8 |  | 
16 |  | 0.33 | COc1ccc2c(c1)[C@@]1(C)Cc3nc(C)oc3C(C)(C)[C@@H]1CC2 | 100 | 75 | 99.2 | 42.9 | 2
17 |  |  | COc1ccc2c(c1)[C@@]1(C)Cc3cnc(N)nc3C(C)(C)[C@@H]1CC2 | 96.2 | 38.6 | 64.6 |  | 
18 |  |  | COc1ccc2c(c1)[C@@]1(C)Cc3cnc(C)nc3C(C)(C)[C@@H]1CC2 | 98.5 | 45.2 | 76 |  | 

Row | IC50 [4] [µM] | IC50 [6] [µM] | Structure (SMILES) | inhibition at 10 µM [1] [%] | inhibition at 0.5 µM [2] [%] | inhibition at 2 µM [3] [%] | inhibition at 0.1 µM [5] [%] | Ratio IC50 [7]
19 |  |  | COc1cc2c(cc1C(C)=O)CC[C@H]1C(C)(C)c3oc(C)nc3C[C@]21C |  | 64.5 | 100 | 30.6 | 
20 |  |  | CCCC(=O)c1cc2c(cc1OC)[C@@]1(C)Cc3nc(C)oc3C(C)(C)[C@@H]1CC2 |  | 55.6 | 83.6 | 30 | 
21 |  |  | COc1ccc2c(c1)[C@@]1(C)Cc3c(C(=O)O)noc3C(C)(C)[C@@H]1CC2 | 77.9 | 55.1 | 66.8 |  | 
22 |  |  | COc1ccc2c(c1)[C@@]1(C)Cc3c([nH]c4ccccc34)C(C)(C)[C@@H]1CC2 | 88.9 | 57.6 | 74.3 |  | 
23 | 4 |  | CC1(C)C(=O)CC[C@]2(C)[C@@H]1CC[C@@]13C[C@@H]4[C@@H](C[C@H]12)[C@]4(C(=O)O)C3 |  |  |  |  | 
24 |  |  | COc1ccc2c(c1)[C@@]1(C)Cc3nccnc3C(C)(C)[C@@H]1CC2 | 98.2 | 34.3 | 66.9 |  | 
25 |  |  | COc1cc2c(cc1N)CC[C@H]1C(C)(C)c3oc(C)nc3C[C@]21C |  | 54.8 | 77.7 | 27.1 | 
26 |  |  | CCOC(=O)c1[nH]nc2c1C[C@]1(C)c3cc(OC)ccc3CC[C@H]1C2(C)C | 93.7 | 61.6 | 71.7 |  | 
27 | 20 |  | CC1(C)[C@H](O)CC[C@]2(C)[C@@H]1CC[C@]13CC4C[C@](O)(C1)[C@@H]4C[C@H]32 |  |  |  |  | 
28 |  |  | COc1cc2c(cc1NC(C)=O)CC[C@H]1C(C)(C)c3oc(C)nc3C[C@]21C |  | 44.1 | 66.1 | 26.9 | 
29 |  |  | CCCOC(=O)c1noc2c1C[C@]1(C)c3cc(OC)ccc3CC[C@H]1C2(C)C | 100 | 34.8 | 41.4 |  | 
30 |  |  | CCNC(=O)c1cc2c(cc1OC)[C@@]1(C)Cc3nc(C)oc3C(C)(C)[C@@H]1CC2 |  | 70 | 98.2 | 56.1 | 
31 |  |  | COc1ccc2c(c1)[C@@]1(C)Cc3snnc3C(C)(C)[C@@H]1CC2 | 97.2 | 66.7 | 76.8 |  | 
32 |  |  | CNC(=O)c1cc2c(cc1O)[C@@]1(C)Cc3nc(C)oc3C(C)(C)[C@@H]1CC2 |  | 87.6 | 96.6 | 64.1 | 
33 |  |  | COc1ccc2c(c1)[C@@]1(C)Cc3c[nH]nc3C(C)(C)[C@@H]1CC2 | 10.1 | 4.3 | 8.1 |  | 
34 |  |  | COc1cc2c(cc1C(N)=O)CC[C@H]1C(C)(C)c3oc(C)nc3C[C@]21C |  | 30.9 | 57 | 10.2 | 
35 |  |  | COc1cc2c(cc1/C(C)=N/O)CC[C@H]1C(C)(C)c3oc(C)nc3C[C@]21C |  | 42.7 | 70 | 26.9 | 
36 |  |  | COc1ccc2c(c1)[C@@]1(C)Cc3cncnc3C(C)(C)[C@@H]1CC2 | 99.5 | 51.1 | 83 |  | 
